# Earlier results, collected in patent EP1399019B1, “ADJUVANT COMPOSITIONS AND PESTICIDES” (HUNTSMAN PETROCHEMICAL CORPORATION, priority 2001, dated 2002).
# Where two headings read alike, the source gives them in different places.
smiles,measurement,setting,value
"CNC(=O)CSP(=S)(OC)OC [Cygon, dimethoate]",time to lose 50 percent of its pest control power,mixed in water of pH 9,48 min
same,time to lose 50 percent of its pest control power,pH of 6,720 min
